According to patent US6624140B1, “Synthetic peptides with antimicrobial and endotoxin neutralizing properties for management of the sepsis syndrome” (Academisch Ziekenhuis Bij de Universiteit van Amsterdam …, priority 1997, dated 2003):
No end group written: not given here.

Key:
[1] = Capture of TAG-labeled endotoxin by immobilized peptide (ECL); assay type: binding, Escherichia coli; conditions: biotinylated BP2 on streptavidin beads; TAG-labeled J5 LPS
Method: FIGS. 5A and 5B. Capture of labeled endotoxin by immobilized synthetic peptide. 2 ng of biotinylated synthetic peptide BP2, immobilized on 20 μg of streptavidin-coated supramagnetic polystyrene beads (Dynabeads M-280, Dynal A. S., Oslo, Norway) was incubated with the indicated amounts of chemiluminescent TAG-labeled E. coli J5 LPS for 20 min at 23° C. The amount of captured endotoxin, after a washing cycle with Phosphate buffer containing 0.1% (v/v) Triton X100, was determined by electochemiluminescence detection (ECL) using an Origen Analyser (Igen Inc., Rockville, Mass.). […] The values are the means of triplicate determinations corrected for non-specific binding.
Capture of the TAG labeled J5 LPS by immobilized synthetic peptide was quantitated by electrochemiluminescence detection subsequent to washing steps with phosphate buffer containing 0.1% (w/v) Triton X100 to remove excess unbound LPS. […] This confirms the high capacity of immobilized peptides of the invention for endotoxin in solution. […] LPS with high affinity and are universal lipid A binding ligands. The above mentioned microplate experiments were employed to determine the endotoxin binding activity and specificity of the synthetic peptides and formed the basis for the development of a novel highly sensitive endotoxin assay. […] The same degree of concentration-dependent inhibition was observed when various amounts of added endotoxin were assayed directly in plasma dilutions.

[2] = system: IL-6 inducing ability of E. coli 0111:B4 LPS; experiment: Effect of heparin on neutralization of IL-6 inducing ability of LPS; assay type: cell-based, human; conditions: for reduction of LPS neutralizing efficacy by heparin: same heparin concentration (0.4 U/ml)
Method: FIG. 10. Effect of heparin on the efficacy of neutralization of the IL-6 inducing ability of E. coli 0111:B4 LPS by synthetic peptide or Polymyxin B in whole blood diluted 1 in 10. Synthetic peptides at concentrations of 2 μg/ml or PmB at 1 μg/ml was pre-incubated for 30 min at 37° C. with E. coli 0111:B4 LPS at 1 ng/ml in RPMI medium containing heparin in the concentration range of 0.1 to 100 I.U/ml. The residual cytokine inducing ability of the treated endotoxin was determined in diluted whole blood containing heparin at 2 IU/ml after incubation for 16 h at 37° C. Each value is the mean of triplicate determinations corrected for background. Controls contained only LPS.
The endotoxin neutralizing activities of the synthetic peptides of the invention were evaluated by investigating the effect on LPS-stimulated release of the pro-inflammatory cytokines, tumor necrosis factor alpha (TNF-α), interleukin-6 (IL-6) or interleukin-8 (IL-8) in a well characterized in vitro human whole blood bioassay system. In one series of experiments, dilutions of E. coli 0111:B4 LPS from 0.2 to 1 ng/ml were pre-incubated with synthetic peptides at 10 μg/ml concentrations in RPMI medium for 30 min at 20° C. and added to diluted whole blood. Cytokine concentrations in the supernatants were determined after further incubation for 16 h at 37° C. in the presence of 5% CO2 by specific and sensitive ELISA kits (CLB, Amsterdam, The Netherlands). In another series of experiments, the effects of synthetic peptides at concentrations of 2,5, 5 and 10 μg/ml on IL-6 induction by 1 ng/ml 0111:B4 LPS was examined after simultaneous addition of synthetic peptide and LPS to diluted whole blood. […] The control peptide BPI(85-102) was ineffective in reducing cytokine production under these conditions even at a 4-fold higher concentration. This probably reflects the differences in binding affinity for Lipid A of BP1 and BP2 compared with the BPI(85-102) peptide of approximately 5 and 10-fold, respectively. An additional factor which may have influenced binding of the control peptide to endotoxin is the presence of heparin employed as an anti-coagulant at a concentration of […] in the assay system. […] On this basis, it was predicted that the extent of reduction of endotoxin neutralizing efficacy would be a function of the differences in affinity between peptides for endotoxin and heparin. To verify this hypothesis, a series of experiments to determine the effect of increasing heparin concentrations on the efficacy of endotoxin neutralization during pre-incubation of synthetic peptide and E. coli 0111:B4 LPS were performed. FIG. 10 illustrates a dose-dependent suppression of endotoxin neutralizing activity of the synthetic peptides by heparin as exemplified by a reduction of IL-6 inhibition. […]

[3] = Double-immunodiffusion against Re-LPS; assay type: binding, Escherichia coli; conditions: 0.8% agarose, 16 h at 20° C.; data not shown
Method: Double-immunodiffusion of the peptides of the invention against ‘rough’ R-type E. coli D31m4 Re-LPS (List Biological Laboratories Inc., Calif.) or the structurally more complex ‘smooth’ S-type E. coli 0111:B4 LPS (Sigma Chemical Co., Rockford, Ill.) was performed in 0.8% (w/v) agarose containing 50 mM Tris and 0.1% (w/v) Triton X100, pH 7.5. for 16 h at 20° C. PmB and BPI(85-102) were included as control compounds for comparative purposes. The microprecipitates formed were visualized by Coommassie brilliant blue staining. […] Since the amount of precipitate formed is a function of valency, the peptides of the invention appear to be capable of a high degree of intermolecular binding of LPS molecules via the Lipid A moieties. […] The degree of precipitation of endotoxin by the synthetic peptides according to the invention was determined by measurement of the optical density of insoluble complexes formed at 340 nm (FIG. 2). […] Binding characteristics of biotinylated derivatives of the synthetic peptides BP1, BP2, BP2.1 and the control peptide BPI(85-102) were determined on ELISA microtiter plates coated with E. coli D31m4 Lipid A. Specific binding of the biotinylated peptides to the immobilized Lipid A was determined by development with Streptavidin-HRP and 3, 5, 3′, 5′ tetra-methylbenzidine (TMB) substrate and expressed as the corrected optical density at 450 nm. […]

Substance | molar excess of LPS up to which binding response is linear [1] | molar excess of endotoxin at saturation [1] | stochiometric ratio of peptide to LPS up to which capture is linear [1] | molar excess of heparin with respect to LPS for 50% competitive inhibition [2] | reduction of LPS neutralizing efficacy by heparin [2] | precipitation of Re LPS [3]
GKWKLFKKAFKKFLKILAC-OH [BP2, Gly-Lys-Trp-Lys-Leu-Phe-Lys-Lys-Ala-Phe-Lys-Lys-Phe-Leu-Lys-Ile-Leu-Ala-Cys] | 2 fold | 8 fold | 1 to 2 | approximately 10,000 fold |  | 
GRLRKKWKAFKKFLKILAC [BP1] |  |  |  |  | 75% | 
Ile-Lys-Ile-Ser-Gly-Lys-Trp-Lys-Ala-Gin-Lys-Arg-Phe-Leu-Lys-Met-Ser-Gly-(Cys) (IKISGKWKAQKRFLKMSGC; listed as Homo sapiens) [BPI(85-102), reference compound] |  |  |  |  | 80% | considerably less
